# Where “and” joins values, the source holds several entries; their conditions need not be identical. Equal values may be shown once.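 Five concentrations, 48 hours, 96-well plates. Abbreviation: GI50, concentration required for 50% inhibition of growth. TGI marks complete inhibition of growth.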
# Experiments:
# Test in all cases: DTP human tumour cell line panel, 48 h
# SK-MEL-2 melanoma = tested on: SK-MEL-2 melanoma
# OVCAR-3 ovarian = tested on: OVCAR-3 ovarian
# HCT-15 colon = tested on: HCT-15 colon
# MDA-MB-231 breast = tested on: MDA-MB-231 breast
# HCC-2998 colon = tested on: HCC-2998 colon
# OVCAR-5 ovarian = tested on: OVCAR-5 ovarian
# UO-31 renal = tested on: UO-31 renal
# CAKI-1 renal = tested on: CAKI-1 renal
# MDA-MB-435 = tested on: MDA-MB-435
# UACC-62 melanoma = tested on: UACC-62 melanoma
Compound,GI50 (SK-MEL-2 melanoma),TGI (SK-MEL-2 melanoma),GI50 (OVCAR-3 ovarian),TGI (OVCAR-3 ovarian),GI50 (HCT-15 colon),TGI (HCT-15 colon),GI50 (MDA-MB-231 breast),TGI (MDA-MB-231 breast),GI50 (HCC-2998 colon),TGI (HCC-2998 colon),GI50 (OVCAR-5 ovarian),TGI (OVCAR-5 ovarian),GI50 (UO-31 renal),TGI (UO-31 renal),GI50 (CAKI-1 renal),TGI (CAKI-1 renal),GI50 (MDA-MB-435),TGI (MDA-MB-435),GI50 (UACC-62 melanoma),TGI (UACC-62 melanoma)
[Cl][Hg][c]1ccc2ccccc2c1,1.6 µM,3.92 µM,1.79 µM,3.63 µM,1.58 µM,3.18 µM,1.74 µM,3.5 µM,2.57 µM,7.21 µM,7.55 µM,16.5 µM,4.44 µM,8.23 µM,3.64 µM,6.97 µM,1.68 µM,3.44 µM,1.81 µM,4.45 µM
CN(C)c1cc2c(Nc3ccc4c(cnn4Cc4ccccc4)c3)ncnc2cn1,7.5 µM,20.9 µM,6.43 µM,> 25 µM,9.6 µM,> 25 µM,6.1 µM,> 25 µM,10.8 µM,> 25 µM,9.2 µM,> 25 µM,4.06 µM,> 18.4 µM,0.299 µM,> 21.5 µM,10.5 µM,> 25 µM,6.96 µM,19.9 µM
O=C(N/N=C/c1cc(Cl)ccc1O)c1ccccc1Nc1ccnc(C(F)(F)F)c1,2.71 µM,19.9 µM,0.472 µM,9.86 µM,0.152 µM,13.6 µM,0.54 µM,21.1 µM,0.476 µM,17.1 µM,1.67 µM,25.6 µM,0.346 µM,7.73 µM,0.405 µM,3.87 µM,1.16 µM,16.9 µM,0.331 µM,1.75 µM
CC(C)(O)CCc1cccc(C(=O)c2cnn(-c3ccc(F)cc3)c2N)c1,> 25 µM,> 25 µM,> 25 µM,> 25 µM,> 25 µM,> 25 µM,> 25 µM,> 25 µM,> 25 µM,> 25 µM,> 25 µM,> 25 µM,> 25 µM,> 25 µM,> 25 µM,> 25 µM,> 25 µM,> 25 µM,> 25 µM,> 25 µM
CN(C)CC1C(=O)O[C@H]2[C@H]1CC/C(COC(=O)NCc1ccc(Cn3c(=O)sn(CCCI)c3=O)cc1)=C\CC[C@@]1(C)O[C@@H]21 (some centres not stated),6.31 µM,13.8 µM,0.775 µM,1.45 µM,0.965 µM,2.13 µM,0.906 µM,1.8 µM,7.56 µM,15.4 µM,1.38 µM,5.04 µM,0.775 µM,1.52 µM,0.886 µM,1.95 µM,1.13 µM,2.73 µM,1.28 µM,3.97 µM
COc1cc2c(NC3CCN(C(C)C)CC3)nc(C3CCCCC3)nc2cc1OCCCN1CCCC1,2.18 µM,4.59 µM,6.98 µM,20.4 µM,9.82 µM,23.9 µM,2.61 µM,9.44 µM,9.03 µM,27.4 µM,8.87 µM,22.2 µM,14.1 µM,28.1 µM,5.01 µM,11.2 µM,1.67 µM,3.34 µM,5.47 µM,16.8 µM
Oc1ccc(Cl)cc1Sc1cc(Cl)ccc1O,2.17 µM,24.2 µM and 5.56 µM,2.79 µM,15.4 µM and 6.8 µM,3.19 µM,45.5 µM and 11.4 µM,2.72 µM,31.7 µM and 7.71 µM,3.92 µM,14.8 µM,3.12 µM,34.3 µM and 12.7 µM,2.24 µM,20.1 µM and 6.24 µM,6.82 µM,34.8 µM and 29.6 µM,2.79 µM,23.9 µM and 9.08 µM,3.24 µM,17.1 µM and 10.7 µM
C=C1C(=O)O[C@@H]2CC(CO)=C([C@@H](C)CCCO)[C@@H](OC(=O)/C(C)=C\C)[C@H]12,,70.5 µM,,26.2 µM,,31.3 µM,,57.2 µM,,29.6 µM,,> 56.9 µM,,> 65 µM,,63.4 µM,,> 52.4 µM,,47.8 µM
OC(CN1CCCC2CCCCC21)c1cc2ccccc2c2ccccc12 (configuration not stated),1.67 µM,3.31 µM,2.82 µM,8.54 µM,2.15 µM,9.23 µM,1.69 µM,4.06 µM,1.78 µM,3.9 µM,1.95 µM,5.64 µM,1.44 µM,7.41 µM,2.36 µM,8.15 µM,2.02 µM,5.06 µM,2.32 µM,6.58 µM
O=C1CC(Cc2n[nH]c3c2CCCC3)CC(=O)N1,,> 100 µM,,> 100 µM,,> 100 µM,,> 100 µM,,> 100 µM,,> 100 µM,,,,> 100 µM,,> 100 µM,,> 100 µM
CC(=O)O[C@@H]1C2=C(C)C3(CC3)[C@@](C)(O)C(=O)C2=C[C@@]1(C)CO,1.86 µM,4.43 µM,0.319 µM,1.16 µM,0.423 µM,10.1 µM,1.8 µM,8.92 µM,0.496 µM,1.89 µM,0.427 µM,,,,1.5 µM,13.3 µM,0.48 µM,1.72 µM,1.71 µM,3.59 µM
Cc1cc(Cl)nc(N(CCCNc2ccnc3cc(Cl)ccc23)Cc2cccs2)n1,2.29 µM,6.54 µM,2.19 µM,13.4 µM,1.43 µM,10.1 µM,1.24 µM,3.4 µM,2.09 µM,6.12 µM,1.39 µM,13.7 µM,0.456 µM,3.71 µM,,,1.94 µM,6.09 µM,1.7 µM,4.51 µM
CSc1nnc(-c2cc3c([nH]c4ccccc43)c(-c3cccc(O)c3)n2)n1-c1ccc(C)cc1,2.11 µM,6.61 µM,2.64 µM,9.24 µM,3.55 µM,> 100 µM,3.31 µM,15.8 µM,12.3 µM,> 100 µM,17.2 µM,70.1 µM,1.93 µM,29.1 µM,,,1.32 µM,11.2 µM,3.28 µM,21.5 µM
